Consider five molecules from US10780080B2, “Benzamide and active compound compositions and methods of use” (TRANSLATIONAL DRUG DEVELOPMENT, LLC, priority 2016, dated 2020).

Where “and” joins values, the source holds several entries; their conditions need not be identical. Equal values may be shown once. Entries after “also recorded” stand apart in the source; their conditions may differ.

What is called IC50 is the concentration needed to halve the response being measured.

The conditions of data set [1]: solvents named in the value; cited from earlier work.
Another data set has as its system cancer cell models. To be noted: literature reports; cited from earlier work.
The subject of a further data set is CT-26 murine colon tumor. Kind of data set: CT-26 tumor volume growth, ID #24 and anti-4-1BB. Type of data set: in vivo. To be noted: Anti-m4-1BB 0.05 mg/kg IP QDx1, in mm³.
For data set [2], the system named is intratumoral CD8 T-cells and natural killer cells. The experiment in a line: Intratumoral immune cells in tumor bearing mice. Type of data set: in vivo.
In data set [3] the test system is human acute leukemia cell line (HL-60). Kind of data set: CellTiter-Glo cell viability assay, single agent growth inhibition. Type of data set: cell-based. To be noted: HL-60, 72 hours treatment. Here is the method:
Cell viability in the presence of varying concentrations of the benzamide compounds at different time points was used to assess cytotoxicity and the effect of the compounds on cell proliferation.
Cell Viability Assay-Cell viability was measured by the CellTiter-Glo® cell viability assay Promega (Madison, Wis.). The CellTiter-Glo® Luminescent Cell Viability Assay is a homogeneous method to determine the number of viable cells in culture based on quantitation of the ATP present, which signals the presence of metabolically active cells. Following treatment, CellTiter-Glo® is added to treatment wells and incubated at 37° C. luminescence values were measured at using a Molecular Devices Spectramax microplate reader.
Single Agent Studies—Cells were grown to 70% confluency, trypsinized, counted, and seeded in 96 well flat-bottom plates at a final concentration of 2.5×10^3-5×10^3 cells/well (Day 0). Cells were allowed to incubate in growth media for 24 hours to allow for maximum adhesion. Treatment with the test agents or standard agents began on Day 1 and continued for 72 hours. At the 72-hour time point, treatment containing media was removed. Viable cell numbers are quantified by the CellTiter-Glo® cell viability assay as described above. Experiments were run with triplicate concentrations to determine growth inhibitory activity. Results from these studies were used to calculate an IC50 value (concentration of drug that inhibits cell growth by 50 percent of control) for each compound.
Data Collection—For single agent and combination studies, data from each experiment was collected and expressed as % Cell Growth using the following calculation: % Cell Growth=(ftest/fvehicle)×100
Where ftest is the luminescence of the tested sample, and fvehicle is the luminescence of the vehicle in which the drug is dissolved. Dose response graphs and IC50 values were generated using Prism 6 software (GraphPad).
For orientation: Cellular ATP, detected with luciferase, serves as a proxy for viable cell number.

For the molecule `Nc1ncn([C@@H]2O[C@H](CO)[C@@H](O)[C@H]2O)c(=O)n1` [Azacitidine, 4-amino-1-β-D-ribofuranozyl-s-triazin-2(1H)-one], the solubility entry in data set [1] was “insoluble in acetone, ethanol and methyl ketone; also recorded: slightly soluble in ethanol/water (50/50), propylene glycol and polyethylene glycol; also recorded: sparingly soluble in water, water-saturated octanol, 5% dextrose in water, N-methyl-2-pyrrolidone, normal saline and 5% Tween 80 in water; also recorded: soluble in dimethylsulfoxide (DMSO)”.

For the molecule `Nc1ncn([C@H]2C[C@H](O)[C@@H](CO)O2)c(=O)n1` [Decitabine, 4-amino-1-(2-deoxy-β-D-erythro-pentofuranosyl)-1,3,5-triazin-2(1H)one], the “effects on cancer cells” value in the data set on cancer cell models is “suppression of growth and apoptosis; also recorded: causes G2 arrest, reduces clonogenic survival, and inhibits growth in cells”. For the same molecule, in data set [1], the solubility entry was “slightly soluble in ethanol/water (50/50), methanol/water (50/50) and methanol; also recorded: sparingly soluble in water; also recorded: soluble in dimethylsulfoxide (DMSO)”.

With `O=C(NO)c1ccc(Nc2nc3ccccc3n2CC2CCCCC2)cc1` [ID #24, 4-(1-(cyclohexylmethyl)-1H-benzo[d]imidazol-2-ylamino)-N-hydroxybenzamide], the “tumor volume, individual animal (ID 001-005)” value is 85 with CT-26 murine colon tumor (Day 1, Example #24 150.00 mg/kg PO QD to end); 73 in the data set on CT-26 murine colon tumor (Day 5, Example #24 150.00 mg/kg PO QD to end); 65 in the data set with CT-26 murine colon tumor (Day 8, Example #24 150.00 mg/kg PO QD to end); 65 with CT-26 murine colon tumor (Day 9, Example #24 150.00 mg/kg PO QD to end); 68 and 590 in the data set on CT-26 murine colon tumor (Day 12, Example #24 150.00 mg/kg PO QD to end); 67 in the data set on CT-26 murine colon tumor (Day 14, Example #24 150.00 mg/kg PO QD to end). For the same molecule, the “numbers of intratumoral CD8 T-cells and natural killer cells” value in data set [2] is “increased numbers of intratumoral CD8 T-cells and natural killer cells”. In addition, the IC50 in data set [3] is 1.15 µM.

For `O=C(NO)c1ccc(Nc2nc3ccccc3n2C2CCCCC2)cc1` [ID #25, 4-(1-cyclohexyl-1H-benzo[d]imidazol-2-ylamino)-N-hydroxybenzamide], the 50% inhibitory concentration (IC50) in data set [3] is 3.9 µM.

In the case of `O=C(NO)c1ccc(Nc2nc3ccccc3n2C2CCCCCC2)cc1` [ID #26, 4-(1-cycloheptyl-1H-benzo[d]imidazol-2-ylamino)-N-hydroxybenzamide], the half-maximal inhibitory concentration (IC50) in data set [3] worked out at 0.66 µM.
